We go through 10 compounds from PubChem BioAssay (NCI).

Common to all, as to test: NCI tumour cell line growth inhibition, 48 h
For experiment [1], the system named is BT-549 breast.
The test system of experiment [2] is HCT-15 colon.
The test system of experiment [3] is OVCAR-4 ovarian.
The subject of experiment [4] is OVCAR-5 ovarian.
Experiment [5] concerns OVCAR-8 ovarian.
Experiment [6] deals with SK-MEL-5 melanoma.
Experiment [7] deals with SK-OV-3 ovarian.
The test system of experiment [8] is TK-10 renal.

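Dose response: 5 concentrations. Exposure: 48 h. Format: 96-well plates. Endpoint: linear interpolation; highest concentration if not reached. GI50 is the concentration that inhibits growth by half. TGI marks complete inhibition of growth.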 Bounds are passed on as bounds.

Regarding `O=C(CSc1nc2sc3c(c2c(=O)n1-c1ccccc1)CCCCC3)N/N=C/c1ccc(F)cc1`, the GI50 is 3.66 µM in experiment [1]; 3.77 µM in experiment [2]; 0.671 µM in experiment [3]; 3.76 µM in experiment [4]; 1.58 µM in experiment [5]; 2.93 µM in experiment [6]. Moreover, the GI50 in experiment [7] was 3.47 µM; in experiment [8] it was 1.6 µM. In addition, the TGI in experiment [1] is 17.8 µM; in experiment [2], > 100 µM; in experiment [3] it was 2.46 µM; in experiment [4], 20.6 µM; in experiment [5] it was 5.19 µM; in experiment [6], 9.56 µM. The TGI in experiment [7] turned out to be 11.8 µM; in experiment [8] it was 4.16 µM.
Consider `C/C=C/C/C=C/CCC(=O)C1OC1C(N)=O` (stereo not drawn), for which the TGI in experiment [1] stood at 24.6 µM; in experiment [2] it was 25.9 µM; in experiment [3], 23.8 µM; in experiment [4] it was 32.8 µM; in experiment [5] it was 26.7 µM; in experiment [6] it was 28.3 µM. Further, the TGI stood at 81.8 µM in experiment [7] and 25.9 µM in experiment [8].
For `CC(=O)NC(Cc1c[nH]c2ccccc12)C(=O)O` (stereo not drawn), the TGI in experiment [1], in experiment [2], in experiment [3], in experiment [4], in experiment [5] and in experiment [6] was > 100 µM in each case. The TGI in experiment [7] and in experiment [8] was > 100 µM each time.
On to `Nc1c(C(=O)Nc2cccc3ccccc23)sc2nc3c(cc12)CCCCC3`, for which the GI50 in experiment [1] was 0.549 µM; in experiment [2], 0.309 µM; in experiment [3], 1.79 µM; in experiment [4], 2.48 µM; in experiment [5] it was 1.68 µM; in experiment [6] it was 0.347 µM. Further, the results for the GI50 in experiment [7] and in experiment [8] were 1.47 µM and 43.4 µM, respectively. Further, the TGI in experiment [1] was 3.75 µM; in experiment [2], > 50 µM; in experiment [3] it was > 50 µM; in experiment [4], > 50 µM; in experiment [5] it was > 50 µM; in experiment [6], 11.5 µM. Moreover, the TGI in experiment [7] and in experiment [8] was > 50 µM in each case.
`C[C@@H](Oc1cc(-c2cnn(C3CC4(CCNCC4)C3)c2)cnc1N)c1c(F)ccc(Cl)c1Cl`: the GI50 was 1.75 µM in experiment [1]; 1.38 µM in experiment [2]; 1.79 µM in experiment [3]; 1.39 µM in experiment [4]; 2.71 µM in experiment [5]; 1.47 µM in experiment [6]. Further, the GI50 is 2.43 µM in experiment [7] and 1.85 µM in experiment [8]. Besides, the TGI in experiment [1] worked out at 3.78 µM; in experiment [2] it was 3.5 µM; in experiment [3] it was 6.53 µM; in experiment [4], 6.65 µM; in experiment [5], 12.3 µM; in experiment [6], 2.85 µM. For the same compound, the TGI in experiment [7] came out at 6.75 µM; in experiment [8] it was 4.7 µM.
On to `O=c1[nH]cnc2c1nnn2[C@@H]1O[C@H](CO)[C@@H](O)[C@H]1O`, for which the GI50 is 9.81 µM in experiment [1]; 2.8 µM in experiment [2]; 1.89 µM in experiment [3]; 19.3 µM in experiment [4]; 0.843 µM in experiment [5]; 13.1 µM in experiment [6]. Also, the GI50 was 0.868 µM in experiment [7] and 9.1 µM in experiment [8]. The TGI in experiment [1], in experiment [2], in experiment [3], in experiment [4], in experiment [5] and in experiment [6] was > 100 µM each time. Besides, the TGI in experiment [7] and in experiment [8] was > 100 µM throughout.
Regarding `CNC(=O)c1ccc(Nc2nc(OC3CCCC3)c3c(-c4ccc5nc(C)oc5c4)c[nH]c3n2)c(OC)c1`, the GI50 in experiment [1] was 2.04 µM; in experiment [2], 0.0689 µM; in experiment [3], 5.59 µM; in experiment [4], 64.2 µM; in experiment [5], 0.6 µM; in experiment [6], 2.12 µM. Moreover, the GI50 in experiment [8] was > 68.7 µM. Further, the TGI in experiment [1], in experiment [2], in experiment [3], in experiment [4], in experiment [5] and in experiment [6] was > 100 µM each time. The TGI in experiment [7] and in experiment [8] was > 100 µM throughout.
Regarding `O=C1CN2CCC1C/C2=C\c1ccnc2c(Cl)cccc12` (stereo not drawn), the GI50 in experiment [1] is > 100 µM; in experiment [2], 85.7 µM; in experiment [3], 42.5 µM; in experiment [4], > 100 µM; in experiment [5], 61.6 µM; in experiment [6] it was 31 µM. The GI50 in experiment [7] and in experiment [8] was > 100 µM throughout. The TGI in experiment [1], in experiment [2], in experiment [3], in experiment [4], in experiment [5] and in experiment [6] was > 100 µM in each case. The TGI in experiment [7] and in experiment [8] was > 100 µM in each case.
Regarding `C[C@]12CC[C@@H]3c4ccc(OCC(=O)O)cc4CC[C@H]3[C@@H]1CCC2=O`, the TGI in experiment [1], in experiment [2], in experiment [3], in experiment [4], in experiment [5] and in experiment [6] was > 100 µM throughout. Moreover, the TGI in experiment [7] and in experiment [8] was > 100 µM throughout.
As for `COc1cc(C(=O)O)ccc1NC(=O)[C@@H]1N[C@@H](CC(C)(C)C)[C@](C#N)(c2ccc(Cl)cc2F)[C@H]1c1cccc(Cl)c1F`, the GI50 in experiment [1] was 2.76 µM; in experiment [2], 2.93 µM; in experiment [3] it was 4.56 µM; in experiment [4] it was 7.23 µM; in experiment [5], 4.08 µM; in experiment [7], 7.02 µM. Besides, the GI50 in experiment [8] was 5.28 µM. Moreover, the TGI in experiment [1] was found to be 7.11 µM; in experiment [2], 10.1 µM; in experiment [3] it was 29.6 µM; in experiment [4], 24.9 µM; in experiment [5], 23 µM; in experiment [7], 21.3 µM. In experiment [8], this compound had a TGI of 21.2 µM.
